# Results as given in US6339042B1, “Herbicidal N-cyclohexadienyl heteroaryloxyacetamides” (American Cyanamid Co., priority 1999, dated 2002).
# What was measured:
# [1] = test system: Lolium perenne; assay: Pre-emergence herbicidal evaluation, LOLPE; format: in vivo; settings: three weeks after treatment
# From the text: (§1) The treated pots are then placed on greenhouse benches, watered and cared for in accordance with conventional greenhouse procedures.
# [2] = test system: Zea mays; assay: Post-emergence herbicidal evaluation, ZEAMX; settings: three weeks after treatment
# [3] = test system: Alopecurus myosuroides; assay: Pre-emergence herbicidal evaluation, ALOMY; format: in vivo; settings: three weeks after treatment
# From the text: as §1
# [4] = test system: Echinochloa crus-galli; assay: Post-emergence herbicidal evaluation, ECHCG; settings: three weeks after treatment
# Protocol: (§2) The compounds of the invention are tested for pre- and post-emergence herbicidal activity.
# (§3) Each pot is examined three weeks after treatment and phytotoxicity is assessed according to the rating system set forth below.
# (§4) These acetone solutions are diluted with water and the resulting formulations applied at dosage levels equivalent of about 0.4 to 0.1 kg per hectare of test compound per pot. After spraying the plants are placed on greenhouse benches and are cared for in the usual manner, commensurate with conventional greenhouse practices.
# [5] = test system: Galium aparine; assay: Post-emergence herbicidal evaluation, GALAP; settings: three weeks after treatment
# [6] = test system: Triticum aestivum; assay: Pre-emergence herbicidal evaluation, TRZAW; format: in vivo; settings: three weeks after treatment
# From the text: as §1
# [7] = test system: Zea mays; assay: Pre-emergence herbicidal evaluation, ZEAMX; format: in vivo; settings: three weeks after treatment
# From the text: as §1
# [8] = test system: Lolium perenne; assay: Post-emergence herbicidal evaluation, LOLPE; settings: three weeks after treatment
# [9] = test system: Hordeum vulgare; assay: Pre-emergence herbicidal evaluation, HORVW; format: in vivo; settings: three weeks after treatment
# From the text: as §1
# [10] = test system: Amaranthus tuberculatus; assay: Post-emergence herbicidal evaluation, AMATA; format: in vivo; settings: three weeks after treatment
# [11] = test system: Amaranthus tuberculatus; assay: Pre-emergence herbicidal evaluation, AMATA; format: in vivo; settings: three weeks after treatment
# From the text: as §1
# [12] = test system: Oryza sativum; assay: Pre-emergence herbicidal evaluation, ORYSA; format: in vivo; settings: three weeks after treatment
# From the text: as §1
# [13] = test system: Triticum aestivum; assay: Post-emergence herbicidal evaluation, TRZAW; settings: three weeks after treatment
# Protocol: as §3, §4
# [14] = test system: Setaria viridis; assay: Post-emergence herbicidal evaluation, SETVI; settings: three weeks after treatment
# Protocol: as §2, §3, §4
# [15] = test system: Oryza sativum; assay: Post-emergence herbicidal evaluation, ORYSA; settings: three weeks after treatment
# Protocol: as §2, §3, §4
# [16] = test system: Alopecurus myosuroides; assay: Post-emergence herbicidal evaluation, ALOMY; settings: three weeks after treatment
# [17] = test system: Glycine max; assay: Pre-emergence herbicidal evaluation, GLXMA; format: in vivo; settings: three weeks after treatment
# From the text: as §1
# [18] = test system: Echinochloa crus-galli; assay: Pre-emergence herbicidal evaluation, ECHCG; format: in vivo; settings: three weeks after treatment
# From the text: as §1
# [19] = test system: Glycine max; assay: Post-emergence herbicidal evaluation, GLXMA; settings: three weeks after treatment
# [20] = test system: Apera spica venti; assay: Post-emergence herbicidal evaluation, APESV; settings: three weeks after treatment
# [21] = test system: Hordeum vulgare; assay: Post-emergence herbicidal evaluation, HORVW; settings: three weeks after treatment
# Protocol: as §3, §4
# [22] = test system: Setaria viridis; assay: Pre-emergence herbicidal evaluation, SETVI; format: in vivo; settings: three weeks after treatment
# From the text: as §1
# [23] = test system: Apera spica venti; assay: Pre-emergence herbicidal evaluation, APESV; format: in vivo; settings: three weeks after treatment
# From the text: as §1
smiles,measurement,setting,value
CC1=CC(N(C)C(=O)COc2nnc(C(F)(F)F)s2)=CC(C)(C)C1 [Example 3],phytotoxicity rating LOLPE,[1]; 0.100 kg/ha,3 (3 - Moderate effect)
same,phytotoxicity rating LOLPE,[1]; 0.200 kg/ha,7 (7 - Good herbicidal effect)
same,phytotoxicity rating LOLPE,[1]; 0.400 kg/ha,9 (9 - Complete kill)
same,phytotoxicity rating LOLPE,[1]; 0.800 kg/ha,9 (9 - Complete kill)
same,phytotoxicity rating ZEAMX,[2]; 0.200 kg/ha,0 (0 - No effect)
same,phytotoxicity rating ZEAMX,[2]; 0.400 kg/ha,0 (0 - No effect)
same,phytotoxicity rating ALOMY,[3]; 0.100 kg/ha,6 (6 - Herbicidal effect)
same,phytotoxicity rating ALOMY,[3]; 0.200 kg/ha,8 (8 - Approaching complete kill)
same,phytotoxicity rating ALOMY,[3]; 0.400 kg/ha,8 (8 - Approaching complete kill)
same,phytotoxicity rating ALOMY,[3]; 0.800 kg/ha,9 (9 - Complete kill)
same,phytotoxicity rating ECHCG,[4]; 0.200 kg/ha,1 (1 - Trace effect)
same,phytotoxicity rating ECHCG,[4]; 0.400 kg/ha,4 (4 - Injury)
same,phytotoxicity rating GALAP,[5]; 0.200 kg/ha,4 (4 - Injury)
same,phytotoxicity rating GALAP,[5]; 0.400 kg/ha,5 (5 - Definite injury)
same,phytotoxicity rating TRZAW,[6]; 0.100 kg/ha,0 (0 - No effect)
same,phytotoxicity rating TRZAW,[6]; 0.200 kg/ha,1 (1 - Trace effect)
same,phytotoxicity rating TRZAW,[6]; 0.400 kg/ha,1 (1 - Trace effect)
same,phytotoxicity rating TRZAW,[6]; 0.800 kg/ha,3 (3 - Moderate effect)
same,phytotoxicity rating ZEAMX,[7]; 0.100 kg/ha,0 (0 - No effect)
same,phytotoxicity rating ZEAMX,[7]; 0.200 kg/ha,1 (1 - Trace effect)
same,phytotoxicity rating ZEAMX,[7]; 0.400 kg/ha,3 (3 - Moderate effect)
same,phytotoxicity rating ZEAMX,[7]; 0.800 kg/ha,7 (7 - Good herbicidal effect)
same,phytotoxicity rating LOLPE,[8]; 0.200 kg/ha,7 (7 - Good herbicidal effect)
same,phytotoxicity rating LOLPE,[8]; 0.400 kg/ha,7 (7 - Good herbicidal effect)
same,phytotoxicity rating HORVW,[9]; 0.100 kg/ha,0 (0 - No effect)
same,phytotoxicity rating HORVW,[9]; 0.200 kg/ha,1 (1 - Trace effect)
same,phytotoxicity rating HORVW,[9]; 0.400 kg/ha,1 (1 - Trace effect)
same,phytotoxicity rating HORVW,[9]; 0.800 kg/ha,4 (4 - Injury)
same,phytotoxicity rating AMATA,[10]; 0.200 kg/ha,0 (0 - No effect)
same,phytotoxicity rating AMATA,[10]; 0.400 kg/ha,0 (0 - No effect)
same,phytotoxicity rating AMATA,[11]; 0.100 kg/ha,0 (0 - No effect)
same,phytotoxicity rating AMATA,[11]; 0.200 kg/ha,0 (0 - No effect)
same,phytotoxicity rating AMATA,[11]; 0.400 kg/ha,6 (6 - Herbicidal effect)
same,phytotoxicity rating AMATA,[11]; 0.800 kg/ha,8 (8 - Approaching complete kill)
same,phytotoxicity rating ORYSA,[12]; 0.100 kg/ha,1 (1 - Trace effect)
same,phytotoxicity rating ORYSA,[12]; 0.200 kg/ha,3 (3 - Moderate effect)
same,phytotoxicity rating ORYSA,[12]; 0.400 kg/ha,6 (6 - Herbicidal effect)
same,phytotoxicity rating ORYSA,[12]; 0.800 kg/ha,6 (6 - Herbicidal effect)
same,phytotoxicity rating TRZAW,[13]; 0.200 kg/ha,1 (1 - Trace effect)
same,phytotoxicity rating TRZAW,[13]; 0.400 kg/ha,3 (3 - Moderate effect)
same,phytotoxicity rating SETVI,[14]; 0.200 kg/ha,0 (0 - No effect)
same,phytotoxicity rating SETVI,[14]; 0.400 kg/ha,0 (0 - No effect)
same,phytotoxicity rating ORYSA,[15]; 0.200 kg/ha,0 (0 - No effect)
same,phytotoxicity rating ORYSA,[15]; 0.400 kg/ha,2 (2 - Slight effect)
same,phytotoxicity rating ALOMY,[16]; 0.200 kg/ha,4 (4 - Injury)
same,phytotoxicity rating ALOMY,[16]; 0.400 kg/ha,7 (7 - Good herbicidal effect)
same,phytotoxicity rating GLXMA,[17]; 0.100 kg/ha,0 (0 - No effect)
same,phytotoxicity rating GLXMA,[17]; 0.200 kg/ha,0 (0 - No effect)
same,phytotoxicity rating GLXMA,[17]; 0.400 kg/ha,0 (0 - No effect)
same,phytotoxicity rating GLXMA,[17]; 0.800 kg/ha,0 (0 - No effect)
same,phytotoxicity rating ECHCG,[18]; 0.100 kg/ha,6 (6 - Herbicidal effect)
same,phytotoxicity rating ECHCG,[18]; 0.200 kg/ha,8 (8 - Approaching complete kill)
same,phytotoxicity rating ECHCG,[18]; 0.400 kg/ha,8 (8 - Approaching complete kill)
same,phytotoxicity rating ECHCG,[18]; 0.800 kg/ha,9 (9 - Complete kill)
same,phytotoxicity rating GLXMA,[19]; 0.200 kg/ha,2 (2 - Slight effect)
same,phytotoxicity rating GLXMA,[19]; 0.400 kg/ha,4 (4 - Injury)
same,phytotoxicity rating APESV,[20]; 0.200 kg/ha,6 (6 - Herbicidal effect)
same,phytotoxicity rating APESV,[20]; 0.400 kg/ha,3 (3 - Moderate effect)
same,phytotoxicity rating HORVW,[21]; 0.200 kg/ha,0 (0 - No effect)
same,phytotoxicity rating HORVW,[21]; 0.400 kg/ha,2 (2 - Slight effect)
same,phytotoxicity rating SETVI,[22]; 0.100 kg/ha,6 (6 - Herbicidal effect)
same,phytotoxicity rating SETVI,[22]; 0.200 kg/ha,8 (8 - Approaching complete kill)
same,phytotoxicity rating SETVI,[22]; 0.400 kg/ha,8 (8 - Approaching complete kill)
same,phytotoxicity rating SETVI,[22]; 0.800 kg/ha,9 (9 - Complete kill)
same,phytotoxicity rating APESV,[23]; 0.100 kg/ha,3 (3 - Moderate effect)
same,phytotoxicity rating APESV,[23]; 0.200 kg/ha,6 (6 - Herbicidal effect)
same,phytotoxicity rating APESV,[23]; 0.400 kg/ha,8 (8 - Approaching complete kill)
same,phytotoxicity rating APESV,[23]; 0.800 kg/ha,9 (9 - Complete kill)
same,melting point,,54 to 57 °C
